These results are taken from publication PMC11187126, “Structure and dynamics of the pyroglutamylated RF-amide peptide QRFP receptor GPR103” (Nature Communications, 2024).

In this assay the target is T1, GPR103 F322^7.43A (Homo sapiens, UniProt Q96P65, F322A).
T1 construct: we used human full-length QRFPR-encoding plasmids; expressed in transfected cells; host or cells: HEK293 cells (HEK293A in the flow cytometry section), pCAGGS vector
T1 sequence (Q96P65 1-431 F322A): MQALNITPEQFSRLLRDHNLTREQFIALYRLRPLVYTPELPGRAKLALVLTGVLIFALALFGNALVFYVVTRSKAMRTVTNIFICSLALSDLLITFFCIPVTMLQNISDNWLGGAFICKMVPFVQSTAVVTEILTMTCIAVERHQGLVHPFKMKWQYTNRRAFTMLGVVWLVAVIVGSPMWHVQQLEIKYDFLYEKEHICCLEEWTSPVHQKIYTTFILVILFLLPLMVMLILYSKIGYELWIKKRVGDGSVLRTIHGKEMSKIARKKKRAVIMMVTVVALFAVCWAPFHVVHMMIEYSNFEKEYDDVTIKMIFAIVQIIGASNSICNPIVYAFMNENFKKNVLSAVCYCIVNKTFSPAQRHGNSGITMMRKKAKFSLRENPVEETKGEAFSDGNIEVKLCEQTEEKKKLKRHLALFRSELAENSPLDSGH
The experiment in a line: TGFα shedding assay; Exp. level WT (1:50). The format is cell-based. On the procedure:
For the TGFα shedding assay and the flow cytometry analysis, we used human full-length QRFPR-encoding plasmids. Specifically, GPR103 was N-terminally modified with an HA signal sequence followed by a FLAG epitope and then a flexible linker ([…]; the FLAG epitope is underlined) and inserted into the pCAGGS vector. Plasmid encoding GPR103 mutants were generated using Quickchange Site-Directed Mutagensis kit (Agilent).
The TGFα shedding assay was performed as described previously with minor modifications. Plasmid transfection was performed in a 6-well plate with a mixture of 500 ng (per well in a 6-well plate) AP-TGFα-encoding plasmid and 200 ng GPR103-encoding plasmid. After 1-day culture, the transfected cells were harvested by trypsinization, pelleted by centrifugation at 190 × g for 5 min, and washed once with 5 mM HEPES (pH 7.4)-containing Hank’s Balanced Salt Solution (HBSS). After centrifugation, the cells were resuspended in 8 mL of the HEPES-containing HBSS. The cell suspension was seeded in a 96-well culture plate (cell plate) at a volume of 90 μL (per well hereafter) and incubated in a 37 °C incubator with 5% CO2 for 30 min. […] After spinning the cell plates at 190 × g for 2 min, 80 μL of conditioned media was transferred to an empty 96-well plate (conditioned media (CM) plate). Then, 80 μL of AP reaction solution (10 mM p-nitrophenylphosphate (p-NPP), 120 mM Tris-HCl (pH 9.5), 40 mM NaCl, and 10 mM MgCl2) was dispensed into the cell plates and the CM plates. Absorbance at 405 nm of the plates was measured using a microplate reader (SpectraMax 340 PC384, Molecular Devices) before and after 1-h incubation at room temperature. Ligand-induced AP-TGFα release was calculated by subtracting spontaneous AP-TGFα release signal from ligand-induced AP-TGFα release signal. The AP-TGFα release signals were fitted to a four-parameter sigmoidal concentration–response curve, using the Prism 10 software (GraphPad Prism). For each replicate experiment, the pEC50 parameter (negative logarithmic values of EC50 values) of the individual GPR103 mutants were normalized to that of the wild-type GPR103 performed in parallel, and resulting ∆pEC50 values were used to denote ligand response activity of the mutants. […]
Exp. le vel: WT (1:5 0)Exp. le vel: WT (1:5 0)Exp. le vel: WT (1:5 0)Exp. le vel: WT (1:2 0)Exp. le vel: WT (1:2 0)Exp. le vel: WT (1:1 0) […]
L1 4N - t e r mA F2 5N - t e r mA I 2 6N - t e r mA Y 2 9N - t e r mA C 9 82 .5 7A T10 22 .6 1A Exp . l eve l: WT (1 :5)Exp . l evel : >WT (1 :1)Exp. le vel: WT (1:2 0)Exp. le vel: WT (1:2 0)Exp. le vel: WT (1:5 0)Exp . l eve l: WT (1 :1) […]
Exp. le vel: WT (1:1 0)Exp. le vel: WT (1:2 0) C 1 1 83 .2 5AExp. le vel: WT (1:5 0)Exp. le vel: WT (1:5 0)Exp. le vel: WT (1:2 0)Exp . l eve l: WT (1 :5) […]
Exp. le vel: WT (1:5 0)Exp. le vel: WT (1:1 0)Exp. le vel: WT (1:5 0) E203ECL2AExp . l evel : >WT (1 :1)Exp. le vel: WT (1:5 0)Exp. le vel: WT (1:5 0) […]
Exp . l eve l: WT (1 :1) F28Exp. le vel: WT (1:5 0) C 2 8 56 .4 7AExp. le vel: WT (1:2 0) WExp. le vel: WT (1:2 0) F28Exp. le vel: WT (1:5 0)Exp . l evel : >WT (1 :1) […]
Exp. le vel: WT (1:5 0)Exp. le vel: WT (1:5 0) C 3 2 77 .4 8AExp . l eve l: WT (1 :5)Exp . l evel : >WT (1 :1)Exp . l evel : >WT (1 :1) […]
Suppl eme nt ary Figure 1 | Mutational analysis of GPR103. […]
mutants. Data are presented as mean values ± SEM, normally n=3-5; dots), each performed in triplicate. b-d Cell-surface expression (b) and QRFP26-in-duced activation of GPR103 (c, d) were analyzed by the flow cytometry and the TGFα shedding assay, respectively. From the concentration–response curves (a), Emax (c) and ΔpEC50 (d) values relative to the wild type were calculated. Colors in the mutant bars indicate an expression level matching to that of titrated wild type. Statistical analyses were performed using the ordinary one-way ANOVA followed by Dunnett tests with the expression-matched […]

Like-named read-outs stand apart in the source and are kept apart here. No end group written: not given here.

For TSGPLGNLAEELNGYSRKKGGFSFRF-NH2 [QRFP26], the Emax reads like this: (Exp. #1) 46.65 % WT; (Exp. #2) 35.03 % WT; (Exp. #3) 42.29 % WT; (mean, read-out: Emax) 41.3%; (n = 3, read-out: Emax) 42.7 ± 2.8%. Also, where the note is “n = 3”, the EC50 was 24.5 nM.
